According to patent US20260041723A1, “BACTERIOPHAGE COMPOSITIONS FOR TREATING STAP[…]” (priority 2020, published 2026):

System: S. aureus strains
Format: cell-based
Conditions: resistant or intermediate strains, in the presence of AP-SA02
Procedure: Grey boxes indicate lines on graph depicted in FIG. 5B. […] Vancomycin, 16 μg/mL; AP-SA02, 0.1 pg/mL.
FIG. 6A is data showing bacterial growth measured by turbidity (absorbance at 600 nm) in the presence of AP-SA02 and vancomycin in a checkerboard assay. Grey boxes show lines on graph depicted in FIG. 6B. […] Vancomycin, 2 μg/mL.
Standard therapy for subjects with a S. aureus infection includes vancomycin and daptomycin. Since subjects who receive AP-SA02 are likely to be on these therapies, the effect of AP-SA02 on these antibiotics and vice versa was assessed. Using the standard checkerboard assay, the minimum inhibitory concentration of each antimicrobial alone or in combination with each other, was used to calculate whether two antimicrobials are synergistic, antagonistic, or indifferent (Table 3).

With `CN[C@H](CC(C)C)C(=O)N[C@H]1C(=O)N[C@@H](CC(N)=O)C(=O)N[C@H]2C(=O)N[C@H]3C(=O)N[C@H](C(=O)N[C@H](C(=O)O)c4cc(O)cc(O)c4-c4cc3ccc4O)[C@H](O)c3ccc(c(Cl)c3)Oc3cc2cc(c3O[C@@H]2O[C@H](CO)[C@@H](O)[C@H](O)[C@H]2O[C@H]2C[C@](C)(N)[C@H](O)[C@H](C)O2)Oc2ccc(cc2Cl)[C@H]1O` [vancomycin] the “breakpoint for vancomycin in the presence of phage” value was 0.5 to 2 µg/mL.
